Data on one molecule can be found in patent US20160106719A1, “Transplantation Adjuvant in Cell Therapy Using Neural Progenitor Cells” (SUMITOMO DAINIPPON PHARMA CO., LTD., priority 2013, published 2016).

For this test, the system named is grafts derived from mouse iPS cells. Nature of the test: Transplantation experiment of mouse iPS cell-derived dopamine neural progenitor cells into striatum of SD rats (immunohistochemistry of grafts). As to conditions: four weeks after transplantation. The test is classed as in vivo. As to the method: Ten-week-old Sprague-Dawley rats (SD rats, available from Shimizu Laboratory Supplies Co., Ltd.) were handled in accordance with the Guidelines for Animal Experiments of Kyoto University. Each SD rat was anesthetized, and donor cells were transplanted by stereotaxic injection into striatums on both sides. Two cell aggregates (containing 3.1×10^5 cells on average) obtained on day 9 after starting the SFEB were collected in 1 μl of PBS(-) so as to be used as the donor cells for the transplantation in each tract. To the PBS(-), Y-27632 was added at a final concentration of […]. Thereafter, intraperitoneal injection of VPA (150 mg/kg/day), ZNS sodium salt (30 mg/kg/day), E2 (80 μM/kg/day) or a saline was conducted from two days before transplanting the donor cells until a day of necropsy. For immunosuppression, cyclosporin A (CsA, manufactured by Wako Pure Chemical Industries, Ltd.) was administered to all the SD rats at a daily dose of 10 mg/kg. Four weeks after the transplantation of the donor cells, the brains of the SD rats were washed and fixed by intracardially perfusing 4% paraformaldehyde under deep anesthesia. On the day of necropsy, a blood sample was collected from each SD rat one hour after the final injection of the test compound or CsA. Such a sample was sent to SRL, Inc. (Tokyo, Japan) where the blood concentration of the administered drug (test compound) was measured.
In an in vitro experiment, a cell aggregate treated with any of the above-described test compounds on day 14 after starting the SFEB was fixed with 4% paraformaldehyde. Thereafter, the fixed cell aggregate was frozen and sliced into thin sections each having a thickness of 10 μM by using a microtome for immunocytochemistry. On the other hand, in an in vivo experiment (transplantation experiment), the brain of a SD rat or a SCID rat was taken out after the transplantation experiment to be fixed again with 4% paraformaldehyde for 2 days. Thereafter, the fixed brain of the SD rat or SCID rat was cryopreserved in 30% sucrose for 3 days, frozen, and sliced into thin sections each having a thickness of 40 μM for immunohistochemistry. The frozen sections of the sphere (spherical cell mass) and the brain were subjected to a permeabilization and blocking treatment in PBS(-) for 1 hour at room temperature to be used as samples. The PBS(-) contained 0.3% Triton-X and 2% donkey serum. Thereafter, each of the sections was incubated overnight together with a primary antibody at 4° C. Primary antibodies used in this example are a rabbit anti-tyrosine hydroxylase antibody (dilution rate of 1:400, TH; manufactured by Millipore), a mouse anti-TH antibody (dilution rate of 1:200, manufactured by Millipore), a sheep anti-TH antibody (dilution rate of 1:400, manufactured by Millipore), a mouse anti-Tubβ3 antibody (dilution rate of 1:1000, Tuj1; manufactured by Covance Inc.), a rat anti-NURR1 antibody (dilution rate of 1:1000, KAN Research Institute, Inc., Kobe, Japan), a rabbit anti-Ki67 antibody (dilution rate of 1:1000, manufactured by Novocastra: NCL-Ki67p), a rabbit anti-caspase 3 antibody (dilution rate of 1:500, manufactured by Santa Cruz Biotechnology, Inc.), a rat anti-M2M6 antibody (dilution rate of 1:50, manufactured by Developmental Study Hybridoma Bank), a mouse anti-Nestin antibody (dilution rate of 1:50; manufactured by Millipore), a rabbit anti-Pitx3 antibody (dilution rate of 1:500; manufactured by Chemicon International Inc.), a goat […] antibody (dilution rate of 1:500, Foxa2; manufactured by Santa Cruz Biotechnology, Inc.), a mouse anti-human Nuclei antibody (dilution rate of 1:1000; manufactured by Millipore), and a mouse anti-NeuN antibody (dilution rate of 1:500, manufactured by Chemicon International Inc.). After washing with PBS (0.05% Tween-20) three times, the resultant sample was incubated with an Alexa Fluor-conjugated secondary antibody for 1 hour at room temperature. […]

Consider `CCCC(CCC)C(=O)[O-].[Na+]` [VPA, sodium 2-propylpentanoate], for which the volume of graft (VPA 150 mg/kg/day i.p., control 9.76±3.19 mm^3, no significant difference) is 4.33±2.14 mm^3. For the same molecule, the “ratio of NeuN+ cells to the number of all the cells in a graft” value (VPA 150 mg/kg/day i.p., control 57.7±9.4%) was found to be 77.9±5.1%. For the same molecule, under “VPA 150 mg/kg/day i.p., control 393±311 cells”, the “number of TH+ cells in a graft” value is recorded as 1396±864 cells. For the same molecule, the “ratio of TH+ cells that were FOXA2+” value (VPA 150 mg/kg/day or ZNS 30 mg/kg/day i.p., control 24.7±9.3%) came out at 81.8±33.6%. Moreover, under “VPA 150 mg/kg/day or ZNS 30 mg/kg/day i.p., control 97±76 cells”, the “number of midbrain dopaminergic neurons (TH+ FOXA2+) in a graft” value is 984±770 cells.
